Reference: ChEMBL document CHEMBL4507294, “Data for DCP probe MSD-CYP11B2” (2021)

Columns and labels:
[1] = target: BMP-2-inducible protein kinase (Homo sapiens) (UniProt Q9NSY1); conditions: Compound concentration 1000.0 nM
[2] = target: Bone morphogenetic protein receptor type-1A (Homo sapiens) (UniProt P36894); conditions: Compound concentration 1000.0 nM
[3] = target: Tyrosine-protein kinase BTK (Homo sapiens) (UniProt Q06187); conditions: Compound concentration 1000.0 nM
[4] = target: Calcium/calmodulin-dependent protein kinase kinase 2 (Homo sapiens) (UniProt Q96RR4); conditions: Compound concentration 1000.0 nM
[5] = target: Cyclin-dependent kinase 3 (Homo sapiens) (UniProt Q00526); conditions: Compound concentration 1000.0 nM
[6] = target: Cyclin-dependent kinase 8 (Homo sapiens) (UniProt P49336); conditions: Compound concentration 1000.0 nM
[7] = target: Cyclin-dependent kinase 9 (Homo sapiens) (UniProt P50750); conditions: Compound concentration 1000.0 nM
[8] = target: Cyclin-dependent kinase-like 2 (Homo sapiens) (UniProt Q92772); conditions: Compound concentration 1000.0 nM
[9] = target: Dual specificity protein kinase CLK2 (Homo sapiens) (UniProt P49760); conditions: Compound concentration 1000.0 nM
[10] = target: Macrophage colony-stimulating factor 1 receptor (Homo sapiens) (UniProt P07333); conditions: Compound concentration 1000.0 nM
[11] = target: Macrophage colony-stimulating factor 1 receptor (Homo sapiens) (UniProt P07333); conditions: Compound concentration 1000.0 nM; remark: listed apart in the source
[12] = target: Casein kinase I isoform alpha (Homo sapiens) (UniProt P48729); conditions: Compound concentration 1000.0 nM
[13] = target: Casein kinase I isoform gamma-2 (Homo sapiens) (UniProt P78368); conditions: Compound concentration 1000.0 nM
[14] = target: Casein kinase II subunit alpha' (Homo sapiens) (UniProt P19784); conditions: Compound concentration 1000.0 nM
[15] = target: Death-associated protein kinase 3 (Homo sapiens) (UniProt O43293); conditions: Compound concentration 1000.0 nM
[16] = target: Serine/threonine-protein kinase 17A (Homo sapiens) (UniProt Q9UEE5); conditions: Compound concentration 1000.0 nM
[17] = target: Dual specificity tyrosine-phosphorylation-regulated kinase 1A (Homo sapiens) (UniProt Q13627); conditions: Compound concentration 1000.0 nM
[18] = target: Ephrin type-A receptor 2 (Homo sapiens) (UniProt P29317); conditions: Compound concentration 1000.0 nM
[19] = target: Fibroblast growth factor receptor 4 (Homo sapiens) (UniProt P22455); conditions: Compound concentration 1000.0 nM
[20] = test system: Mast/stem cell growth factor receptor Kit (Homo sapiens), P10721 [D816H]; conditions: Compound concentration 1000.0 nM
[21] = target: Mitogen-activated protein kinase kinase kinase 4 (Homo sapiens) (UniProt Q9Y6R4); conditions: Compound concentration 1000.0 nM
[22] = target: MAP kinase-activated protein kinase 5 (Homo sapiens) (UniProt Q8IW41); conditions: Compound concentration 1000.0 nM
[23] = test system: Hepatocyte growth factor receptor (Homo sapiens), P08581 [M1250T]; conditions: Compound concentration 1000.0 nM
[24] = target: Dual specificity mitogen-activated protein kinase kinase 7 (Homo sapiens) (UniProt O14733); conditions: Compound concentration 1000.0 nM
[25] = target: MAP kinase-interacting serine/threonine-protein kinase 1 (Homo sapiens) (UniProt Q9BUB5); conditions: Compound concentration 1000.0 nM
[26] = target: Mitogen-activated protein kinase kinase kinase 9 (Homo sapiens) (UniProt P80192); conditions: Compound concentration 1000.0 nM
[27] = target: Macrophage-stimulating protein receptor (Homo sapiens) (UniProt Q04912); conditions: Compound concentration 1000.0 nM
[28] = target: Serine/threonine-protein kinase Nek1 (Homo sapiens) (UniProt Q96PY6); conditions: Compound concentration 1000.0 nM
[29] = target: Serine/threonine-protein kinase Nek7 (Homo sapiens) (UniProt Q8TDX7); conditions: Compound concentration 1000.0 nM
[30] = target: Serine/threonine-protein kinase PAK 4 (Homo sapiens) (UniProt O96013); conditions: Compound concentration 1000.0 nM
[31] = target: Serine/threonine-protein kinase PAK 5 (Homo sapiens) (UniProt Q9P286); conditions: Compound concentration 1000.0 nM
[32] = target: Platelet-derived growth factor receptor beta (Homo sapiens) (UniProt P09619); conditions: Compound concentration 1000.0 nM
[33] = target: Phosphorylase b kinase gamma catalytic chain, skeletal muscle/heart isoform (Homo sapiens) (UniProt Q16816); conditions: Compound concentration 1000.0 nM
[34] = target: Serine/threonine-protein kinase pim-2 (Homo sapiens) (UniProt Q9P1W9); conditions: Compound concentration 1000.0 nM
[35] = target: Serine/threonine-protein kinase N1 (Homo sapiens) (UniProt Q16512); conditions: Compound concentration 1000.0 nM
[36] = target: Serine/threonine-protein kinase PLK4 (Homo sapiens) (UniProt O00444); conditions: Compound concentration 1000.0 nM
[37] = target: Protein kinase C eta type (Homo sapiens) (UniProt P24723); conditions: Compound concentration 1000.0 nM
[38] = target: Ribosomal protein S6 kinase alpha-4 (Homo sapiens) (UniProt O75676); conditions: Compound concentration 1000.0 nM
[39] = target: Tyrosine-protein kinase Srms (Homo sapiens) (UniProt Q9H3Y6); conditions: Compound concentration 1000.0 nM
[40] = target: Serine/threonine-protein kinase 35 (Homo sapiens) (UniProt Q8TDR2); conditions: Compound concentration 1000.0 nM
[41] = target: Non-receptor tyrosine-protein kinase TYK2 (Homo sapiens) (UniProt P29597); conditions: Compound concentration 1000.0 nM
[42] = target: Non-receptor tyrosine-protein kinase TYK2 (Homo sapiens) (UniProt P29597); conditions: Compound concentration 1000.0 nM; remark: listed apart in the source
[43] = target: Phosphatidylinositol 3-kinase catalytic subunit type 3 (Homo sapiens) (UniProt Q8NEB9); conditions: Compound concentration 1000.0 nM
[44] = target: Serine/threonine-protein kinase WNK1 (Homo sapiens) (UniProt Q9H4A3); conditions: Compound concentration 1000.0 nM
[45] = target: Sigma intracellular receptor 2 (Homo sapiens) (UniProt Q5BJF2); conditions: Compound concentration 10.0 uM

Sequence of Macrophage colony-stimulating factor 1 receptor (Homo sapiens) (P07333 whole entry, canonical isoform): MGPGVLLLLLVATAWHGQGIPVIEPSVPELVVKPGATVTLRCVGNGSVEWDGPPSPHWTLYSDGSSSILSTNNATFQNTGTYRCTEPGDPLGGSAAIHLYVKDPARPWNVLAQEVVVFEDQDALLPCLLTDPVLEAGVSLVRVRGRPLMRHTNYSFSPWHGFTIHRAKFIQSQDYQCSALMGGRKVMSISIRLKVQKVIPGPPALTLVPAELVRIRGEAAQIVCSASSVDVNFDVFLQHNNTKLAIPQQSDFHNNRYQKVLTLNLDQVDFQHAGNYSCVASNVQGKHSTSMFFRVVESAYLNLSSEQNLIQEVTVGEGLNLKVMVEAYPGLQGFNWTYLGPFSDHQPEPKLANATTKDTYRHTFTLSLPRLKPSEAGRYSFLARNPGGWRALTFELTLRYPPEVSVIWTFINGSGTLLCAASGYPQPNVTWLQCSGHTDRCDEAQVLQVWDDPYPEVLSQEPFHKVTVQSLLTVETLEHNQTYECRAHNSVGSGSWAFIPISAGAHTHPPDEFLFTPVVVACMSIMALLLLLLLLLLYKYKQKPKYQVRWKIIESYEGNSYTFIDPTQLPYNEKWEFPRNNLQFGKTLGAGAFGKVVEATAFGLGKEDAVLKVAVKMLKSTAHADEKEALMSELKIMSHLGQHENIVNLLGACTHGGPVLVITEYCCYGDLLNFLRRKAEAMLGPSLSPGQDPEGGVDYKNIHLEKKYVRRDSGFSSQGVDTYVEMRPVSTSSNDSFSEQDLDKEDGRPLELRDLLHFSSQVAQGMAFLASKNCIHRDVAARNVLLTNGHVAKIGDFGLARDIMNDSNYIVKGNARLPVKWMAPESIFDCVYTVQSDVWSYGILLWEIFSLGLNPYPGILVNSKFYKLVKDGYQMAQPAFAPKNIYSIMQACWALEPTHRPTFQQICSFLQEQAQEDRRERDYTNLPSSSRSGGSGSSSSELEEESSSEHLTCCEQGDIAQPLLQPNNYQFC
Sequence of Non-receptor tyrosine-protein kinase TYK2 (Homo sapiens) (P29597 whole entry): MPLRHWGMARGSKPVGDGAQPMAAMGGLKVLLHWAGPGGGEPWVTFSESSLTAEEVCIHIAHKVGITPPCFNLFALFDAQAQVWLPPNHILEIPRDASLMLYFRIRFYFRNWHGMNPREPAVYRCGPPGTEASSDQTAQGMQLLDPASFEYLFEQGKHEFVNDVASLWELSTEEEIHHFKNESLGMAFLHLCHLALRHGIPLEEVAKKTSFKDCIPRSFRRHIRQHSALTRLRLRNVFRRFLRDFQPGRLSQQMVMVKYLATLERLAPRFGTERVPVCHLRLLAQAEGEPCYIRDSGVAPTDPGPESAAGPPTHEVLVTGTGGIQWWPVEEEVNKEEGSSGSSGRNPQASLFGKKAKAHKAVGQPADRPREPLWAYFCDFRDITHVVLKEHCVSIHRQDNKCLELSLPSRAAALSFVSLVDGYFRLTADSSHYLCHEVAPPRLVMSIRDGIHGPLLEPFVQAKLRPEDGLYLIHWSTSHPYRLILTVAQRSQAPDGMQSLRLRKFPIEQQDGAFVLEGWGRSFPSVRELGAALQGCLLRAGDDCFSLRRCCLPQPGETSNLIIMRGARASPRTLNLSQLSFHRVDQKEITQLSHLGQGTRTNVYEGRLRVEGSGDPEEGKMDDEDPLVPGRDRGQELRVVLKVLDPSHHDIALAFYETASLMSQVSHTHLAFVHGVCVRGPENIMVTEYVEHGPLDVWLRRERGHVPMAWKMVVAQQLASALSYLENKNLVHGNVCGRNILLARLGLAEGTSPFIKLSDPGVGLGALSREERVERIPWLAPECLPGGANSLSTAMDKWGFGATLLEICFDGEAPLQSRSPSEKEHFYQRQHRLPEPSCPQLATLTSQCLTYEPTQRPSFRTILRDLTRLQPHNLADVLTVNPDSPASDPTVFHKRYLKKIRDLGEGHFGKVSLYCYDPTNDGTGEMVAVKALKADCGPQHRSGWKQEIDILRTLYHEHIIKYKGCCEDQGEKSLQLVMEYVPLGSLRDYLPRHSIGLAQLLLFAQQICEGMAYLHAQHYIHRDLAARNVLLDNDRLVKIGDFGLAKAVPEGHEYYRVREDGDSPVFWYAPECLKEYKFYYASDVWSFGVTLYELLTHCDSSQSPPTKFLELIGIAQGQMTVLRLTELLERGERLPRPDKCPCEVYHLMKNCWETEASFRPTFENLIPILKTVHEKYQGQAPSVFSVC
Sequence of Serine/threonine-protein kinase PLK4 (Homo sapiens) (O00444 whole entry): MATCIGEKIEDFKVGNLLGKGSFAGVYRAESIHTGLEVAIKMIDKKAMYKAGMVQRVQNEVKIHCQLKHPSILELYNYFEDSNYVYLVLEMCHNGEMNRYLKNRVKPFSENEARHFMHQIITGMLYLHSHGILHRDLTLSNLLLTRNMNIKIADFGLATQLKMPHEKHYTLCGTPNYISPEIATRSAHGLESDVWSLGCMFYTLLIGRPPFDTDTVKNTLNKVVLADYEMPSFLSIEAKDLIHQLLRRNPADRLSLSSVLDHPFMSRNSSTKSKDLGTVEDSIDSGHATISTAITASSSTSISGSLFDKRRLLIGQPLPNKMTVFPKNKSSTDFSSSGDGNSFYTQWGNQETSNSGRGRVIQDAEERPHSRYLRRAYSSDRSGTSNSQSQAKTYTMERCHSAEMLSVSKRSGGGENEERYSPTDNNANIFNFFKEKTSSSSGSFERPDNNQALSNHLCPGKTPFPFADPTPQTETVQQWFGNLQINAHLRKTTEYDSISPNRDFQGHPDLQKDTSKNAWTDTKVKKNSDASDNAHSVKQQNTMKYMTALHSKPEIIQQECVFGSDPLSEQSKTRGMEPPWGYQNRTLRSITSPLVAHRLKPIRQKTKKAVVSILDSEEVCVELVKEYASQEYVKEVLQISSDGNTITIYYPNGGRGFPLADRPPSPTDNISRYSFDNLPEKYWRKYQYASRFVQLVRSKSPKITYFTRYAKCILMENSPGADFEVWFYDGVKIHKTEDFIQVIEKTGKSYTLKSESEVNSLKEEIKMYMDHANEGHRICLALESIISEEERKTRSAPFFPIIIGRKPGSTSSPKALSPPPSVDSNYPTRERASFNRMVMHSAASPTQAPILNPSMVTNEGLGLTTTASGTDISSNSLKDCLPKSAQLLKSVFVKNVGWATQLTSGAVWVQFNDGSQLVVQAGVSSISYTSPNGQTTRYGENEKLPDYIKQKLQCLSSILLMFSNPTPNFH
Sequence of Bone morphogenetic protein receptor type-1A (Homo sapiens) (P36894 whole entry): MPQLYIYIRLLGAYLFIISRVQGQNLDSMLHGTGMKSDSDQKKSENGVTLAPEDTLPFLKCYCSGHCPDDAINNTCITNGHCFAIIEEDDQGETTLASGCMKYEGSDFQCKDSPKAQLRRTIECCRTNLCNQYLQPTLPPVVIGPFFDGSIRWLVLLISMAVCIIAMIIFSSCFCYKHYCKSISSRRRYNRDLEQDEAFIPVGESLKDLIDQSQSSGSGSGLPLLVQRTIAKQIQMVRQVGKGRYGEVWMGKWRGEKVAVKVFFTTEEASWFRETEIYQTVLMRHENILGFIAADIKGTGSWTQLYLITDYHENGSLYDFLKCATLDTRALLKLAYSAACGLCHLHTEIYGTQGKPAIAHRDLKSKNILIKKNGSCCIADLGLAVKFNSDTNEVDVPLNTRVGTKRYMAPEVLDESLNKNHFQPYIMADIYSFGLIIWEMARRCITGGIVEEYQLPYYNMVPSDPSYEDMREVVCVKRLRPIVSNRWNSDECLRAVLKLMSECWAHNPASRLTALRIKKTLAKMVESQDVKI
Sequence of Serine/threonine-protein kinase 35 (Homo sapiens) (Q8TDR2 whole entry): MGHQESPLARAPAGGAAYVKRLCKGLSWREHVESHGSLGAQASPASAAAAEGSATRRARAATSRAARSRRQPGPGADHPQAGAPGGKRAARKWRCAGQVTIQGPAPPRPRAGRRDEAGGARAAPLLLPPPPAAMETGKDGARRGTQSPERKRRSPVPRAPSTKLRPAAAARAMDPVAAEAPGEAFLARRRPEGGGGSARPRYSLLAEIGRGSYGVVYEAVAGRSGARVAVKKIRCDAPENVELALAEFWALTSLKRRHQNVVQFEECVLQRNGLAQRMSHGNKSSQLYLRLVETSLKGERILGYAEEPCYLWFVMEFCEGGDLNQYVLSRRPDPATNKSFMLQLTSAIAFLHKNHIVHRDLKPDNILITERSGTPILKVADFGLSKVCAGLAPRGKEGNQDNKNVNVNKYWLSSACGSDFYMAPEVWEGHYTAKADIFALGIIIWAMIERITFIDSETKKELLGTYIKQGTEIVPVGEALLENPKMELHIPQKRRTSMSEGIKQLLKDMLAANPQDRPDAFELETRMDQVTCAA
Sequence of Cyclin-dependent kinase-like 2 (Homo sapiens) (Q92772 whole entry): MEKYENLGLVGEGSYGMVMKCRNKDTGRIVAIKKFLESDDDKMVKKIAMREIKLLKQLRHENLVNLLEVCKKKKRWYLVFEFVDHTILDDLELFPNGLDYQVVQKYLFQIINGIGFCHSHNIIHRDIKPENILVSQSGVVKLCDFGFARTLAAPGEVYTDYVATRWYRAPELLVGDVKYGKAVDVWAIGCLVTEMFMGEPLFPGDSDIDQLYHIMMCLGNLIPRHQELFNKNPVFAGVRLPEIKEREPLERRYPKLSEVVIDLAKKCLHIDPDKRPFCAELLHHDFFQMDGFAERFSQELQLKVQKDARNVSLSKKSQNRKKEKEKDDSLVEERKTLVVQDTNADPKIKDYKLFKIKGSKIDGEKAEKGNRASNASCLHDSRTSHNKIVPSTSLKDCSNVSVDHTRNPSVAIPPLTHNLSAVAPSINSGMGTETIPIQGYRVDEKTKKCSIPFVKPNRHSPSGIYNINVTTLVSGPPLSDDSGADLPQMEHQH
Sequence of Serine/threonine-protein kinase Nek7 (Homo sapiens) (Q8TDX7 whole entry, looked up): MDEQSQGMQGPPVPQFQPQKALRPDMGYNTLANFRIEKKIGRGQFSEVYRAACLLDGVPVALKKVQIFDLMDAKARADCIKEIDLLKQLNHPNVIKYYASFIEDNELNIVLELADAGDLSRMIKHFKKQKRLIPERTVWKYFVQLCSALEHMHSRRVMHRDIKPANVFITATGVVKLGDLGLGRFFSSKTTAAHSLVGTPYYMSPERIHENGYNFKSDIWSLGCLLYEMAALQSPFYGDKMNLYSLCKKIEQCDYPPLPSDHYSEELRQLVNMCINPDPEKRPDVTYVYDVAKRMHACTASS

FC(F)(F)c1ccc2c(c1)nc(-c1cccnc1)n2C1CC1 [MSD-CYP11B2-Negative-control]
residual activity [1]: 100% | residual activity [2]: 93% | residual activity [3]: 93% | residual activity [4]: 100% | residual activity [5]: 100% | residual activity [6]: 100% | residual activity [7]: 100% | residual activity [8]: 100% | residual activity [9]: 100% | residual activity [10]: 100% | residual activity [11]: 89% | residual activity [12]: 90% | residual activity [13]: 100% | residual activity [14]: 100% | residual activity [15]: 100% | residual activity [16]: 100% | residual activity [17]: 100% | residual activity [18]: 100% | residual activity [19]: 100% | residual activity [20]: 100% | residual activity [21]: 100% | residual activity [22]: 97% | residual activity [23]: 100% | residual activity [24]: 100% | residual activity [25]: 100% | residual activity [26]: 100% | residual activity [27]: 100% | residual activity [28]: 100% | residual activity [29]: 100% | residual activity [30]: 100% | residual activity [31]: 100% | residual activity [32]: 100% | residual activity [33]: 100% | residual activity [34]: 100% | residual activity [35]: 100% | residual activity [36]: 78% | residual activity [37]: 100% | residual activity [38]: 99% | residual activity [39]: 95% | residual activity [40]: 100% | residual activity [41]: 100% | residual activity [42]: 100% | residual activity [43]: 100% | residual activity [44]: 100% | inhibition [45]: 26.5%

CC(C)(O)c1cncc(-c2nc3ccc(F)cc3n2C2CC2)c1 [MSD-CYP11B2]
residual activity [1]: 100% | residual activity [2]: 88% | residual activity [3]: 83% | residual activity [4]: 100% | residual activity [5]: 100% | residual activity [6]: 95% | residual activity [7]: 100% | residual activity [8]: 97% | residual activity [9]: 100% | residual activity [10]: 99% | residual activity [11]: 100% | residual activity [12]: 84% | residual activity [13]: 100% | residual activity [14]: 100% | residual activity [15]: 100% | residual activity [16]: 94% | residual activity [17]: 48% | residual activity [18]: 100% | residual activity [19]: 100% | residual activity [20]: 100% | residual activity [21]: 100% | residual activity [22]: 100% | residual activity [23]: 100% | residual activity [24]: 100% | residual activity [25]: 100% | residual activity [26]: 100% | residual activity [27]: 100% | residual activity [28]: 100% | residual activity [29]: 100% | residual activity [30]: 100% | residual activity [31]: 100% | residual activity [32]: 100% | residual activity [33]: 100% | residual activity [34]: 100% | residual activity [35]: 100% | residual activity [36]: 79% | residual activity [37]: 98% | residual activity [38]: 91% | residual activity [39]: 100% | residual activity [40]: 100% | residual activity [41]: 100% | residual activity [42]: 94% | residual activity [43]: 100% | residual activity [44]: 100% | inhibition [45]: 22.7%
